{"source": "patent US20250263370A1", "about": "(Tay Therapeutics Limited, priority 2022, published 2025)", "tested_on": "collagen-induced arthritis", "assay": "Collagen-induced arthritis (CIA) model in rats: body weight, paw volume, clinical scores, clinical observations; as to Average detailed clinical score, left hind limb: key of the grades not given here; as to Average detailed clinical score, right hind limb: key of the grades not given here; as to Detailed Clinical Scores, left forelimb: key of the grades not given here; as to Detailed Clinical Scores, left hind limb: key of the grades not given here; as to Detailed Clinical Scores, right forelimb: key of the grades not given here; as to Detailed Clinical Scores, right hind limb: key of the grades not given here; as to Detailed Clinical Scores, score: key of the grades not given here; as to Detailed Clinical Scores: left forelimb: key of the grades not given here; as to Detailed Clinical Scores: left hind limb: key of the grades not given here; as to Detailed Clinical Scores: right forelimb: key of the grades not given here; as to Detailed Clinical Scores: right hind limb: key of the grades not given here; as to Detailed Clinical Scores: score: key of the grades not given here; as to Mean overall clinical score ± SD: key of the grades not given here; as to overall clinical score: key of the grades not given here", "details": "for Average detailed clinical score, left forelimb / Average detailed clinical score, left hind limb / Average detailed clinical score, right forelimb / Average detailed clinical score, right hind limb / Average detailed clinical score, score / Mean overall clinical score ± SD / Detailed Clinical Scores, left forelimb / Detailed Clinical Scores, left hind limb / Detailed Clinical Scores, right forelimb / Detailed Clinical Scores, right hind limb / Detailed Clinical Scores, score / Overall clinical score / Detailed Clinical Scores: left forelimb / Detailed Clinical Scores: left hind limb / Detailed Clinical Scores: right forelimb / Detailed Clinical Scores: right hind limb / Detailed Clinical Scores: score: CIA rats; for Detailed Clinical Scores, left forelimb / Detailed Clinical Scores, left hind limb / Detailed Clinical Scores, right forelimb / Detailed Clinical Scores, right hind limb / Detailed Clinical Scores, score / Detailed Clinical Scores: left forelimb / Detailed Clinical Scores: left hind limb / Detailed Clinical Scores: right forelimb / Detailed Clinical Scores: right hind limb / Detailed Clinical Scores: score: individual animals ID 1-8; for Overall clinical score: individual animals #1-8; for Mean animal paw volume ± SD: group mean; for Animal paw volume percent change: individual animals", "note": "Values joined by “and” are separate entries in the source; they are usually repeats but may differ in a detail not shown here. Identical values can stand only once.", "description": "Prior to be randomly placed in treatment groups, animals were weighed, and paw volume was measured. Once randomly assigned to treatment groups, on Day 0, animals in groups 2-9 were immunized by subcutaneous injection at the base of the tail.\nThe immunization comprised 100 μL of the CFA+Collagen emulsion (prepared according to the method in Experimental Method A). Animals in group one received no immunization. Seven days after the first injection, animals in groups 2-9 received a booster immunization comprising 200 μL of the IFA+Collagen emulsion (prepared according to the method in Experimental Method A).\nStarting on Day 0, animals in group 1 and 2 were administered daily doses of the vehicle per os (P.O.) for 21 days. […] The twice daily doses for animals in groups 4-9 were 8 hours apart (e.g., the first dose at 8:00 AM and the second dose at 4:00 PM).\nBody weight of all animals was recorded daily for the 21-day period. Blind clinical scores on all four limbs were conducted for all animals in the study. Animals were assessed prior to receiving their first dose of the compound or control, and scores for each limb were combined to a total daily score for each animal. Clinical score assessments were performed on Day 0, 6, 12, 13, 14, 15, 18, 19, and 21 (for a total of 9 daily scores).\nPaw volume was recorded for each animal on Day 0, 6, 12, 13, 14, 15, 18, 19, and 21 (for a total of 9 measurements). To measure paw volume, animals were gently held with one hand while the hind paw was placed into a plethysmometer with the other hand. Lipid displacement by the paw was recorded and used to represent paw volume.\nAll data measured and recorded was analyzed using SPSS 16.0 software. Groups were compared using one-way ANOVA and significance was set at p<0.05.", "data": [{"smiles": "C[C@@H]1C[C@H]2[C@@H]3CCC4=CC(=O)C=C[C@]4(C)[C@@]3(F)[C@@H](O)C[C@]2(C)[C@@]1(O)C(=O)CO", "note": "[dexamethasone]", "values": [{"measurement": "Average detailed clinical score, left forelimb", "setting": "Day 13", "result": 0.00}, {"measurement": "Average detailed clinical score, left hind limb", "setting": "Day 13", "result": 0.00}, {"measurement": "Average detailed clinical score, right forelimb", "setting": "Day 13", "result": 0.00}, {"measurement": "Average detailed clinical score, right hind limb", "setting": "Day 13", "result": 0.00}, {"measurement": "Average detailed clinical score, score", "setting": "Day 13", "result": 0.00}, {"measurement": "Mean overall clinical score ± SD", "setting": "Day 13", "result": "0 ± 0"}, {"measurement": "Detailed Clinical Scores, left forelimb", "setting": "Day 13", "result": 0}, {"measurement": "Detailed Clinical Scores, left hind limb", "setting": "Day 13", "result": 0}, {"measurement": "Detailed Clinical Scores, right forelimb", "setting": "Day 13", "result": 0}, {"measurement": "Detailed Clinical Scores, right hind limb", "setting": "Day 13", "result": 0}, {"measurement": "Detailed Clinical Scores, score", "setting": "Day 13", "result": 0}, {"measurement": "Overall clinical score", "setting": "Day 13", "result": 0}, {"measurement": "Mean animal paw volume ± SD", "setting": "Day 14, L paw", "result": 1.27, "unit": "mL"}, {"measurement": "Animal paw volume percent change", "setting": "Day 14, L paw", "result": "−8.18% and −5.36% and 0.00% and −4.53% and −1.54% and −5.00% and −3.75% and −8.46%"}, {"measurement": "Mean animal paw volume ± SD", "setting": "Day 14, R paw", "result": 1.26, "unit": "mL"}, {"measurement": "Animal paw volume percent change", "setting": "Day 14, R paw", "result": "−5.62% and −2.70% and 0.00% and −8.92% and −2.33% and −7.72% and −5.17% and −8.06%"}, {"measurement": "Average detailed clinical score, left forelimb", "setting": "Day 14", "result": 0.00}, {"measurement": "Average detailed clinical score, left hind limb", "setting": "Day 14", "result": 0.00}, {"measurement": "Average detailed clinical score, right forelimb", "setting": "Day 14", "result": 0.00}, {"measurement": "Average detailed clinical score, right hind limb", "setting": "Day 14", "result": 0.00}, {"measurement": "Average detailed clinical score, score", "setting": "Day 14", "result": 0.00}, {"measurement": "Mean overall clinical score ± SD", "setting": "Day 14", "result": "0 ± 0"}, {"measurement": "Detailed Clinical Scores, left forelimb", "setting": "Day 14", "result": 0}, {"measurement": "Detailed Clinical Scores, left hind limb", "setting": "Day 14", "result": 0}, {"measurement": "Detailed Clinical Scores, right forelimb", "setting": "Day 14", "result": 0}, {"measurement": "Detailed Clinical Scores, right hind limb", "setting": "Day 14", "result": 0}, {"measurement": "Detailed Clinical Scores, score", "setting": "Day 14", "result": 0}, {"measurement": "Overall clinical score", "setting": "Day 14", "result": 0}, {"measurement": "Mean animal paw volume ± SD", "setting": "Day 15, L paw", "result": 1.26, "unit": "mL"}, {"measurement": "Animal paw volume percent change", "setting": "Day 15, L paw", "result": "−8.92% and −7.28% and −2.17%"}, {"measurement": "Mean animal paw volume ± SD", "setting": "Day 15, R paw", "result": 1.26, "unit": "mL"}, {"measurement": "Animal paw volume percent change", "setting": "Day 15, R paw", "result": "−6.74% and −4.25% and −1.45%"}, {"measurement": "Average detailed clinical score, left forelimb", "setting": "Day 15", "result": 0.00}, {"measurement": "Average detailed clinical score, left hind limb", "setting": "Day 15", "result": 0.00}, {"measurement": "Average detailed clinical score, right forelimb", "setting": "Day 15", "result": 0.00}, {"measurement": "Average detailed clinical score, right hind limb", "setting": "Day 15", "result": 0.00}, {"measurement": "Average detailed clinical score, score", "setting": "Day 15", "result": 0.00}, {"measurement": "Mean overall clinical score ± SD", "setting": "Day 15", "result": "0 ± 0"}, {"measurement": "Detailed Clinical Scores: left forelimb", "setting": "Day 15", "result": 0}, {"measurement": "Detailed Clinical Scores: left hind limb", "setting": "Day 15", "result": 0}, {"measurement": "Detailed Clinical Scores: right forelimb", "setting": "Day 15", "result": 0}, {"measurement": "Detailed Clinical Scores: right hind limb", "setting": "Day 15", "result": 0}, {"measurement": "Detailed Clinical Scores: score", "setting": "Day 15", "result": 0}, {"measurement": "Overall clinical score", "setting": "Day 15", "result": 0}, {"measurement": "Mean animal paw volume ± SD", "setting": "Day 18, L paw", "result": 1.29, "unit": "mL"}, {"measurement": "Animal paw volume percent change", "setting": "Day 18, L paw", "result": "−5.20% and −6.51% and 4.33%"}, {"measurement": "Mean animal paw volume ± SD", "setting": "Day 18, R paw", "result": 1.29, "unit": "mL"}, {"measurement": "Animal paw volume percent change", "setting": "Day 18, R paw", "result": "−4.49% and −4.63% and 4.36%"}, {"measurement": "Average detailed clinical score, left forelimb", "setting": "Day 18", "result": 0.00}, {"measurement": "Average detailed clinical score, left hind limb", "setting": "Day 18", "result": 0.00}, {"measurement": "Average detailed clinical score, right forelimb", "setting": "Day 18", "result": 0.00}, {"measurement": "Average detailed clinical score, right hind limb", "setting": "Day 18", "result": 0.00}, {"measurement": "Average detailed clinical score, score", "setting": "Day 18", "result": 0.00}, {"measurement": "Mean overall clinical score ± SD", "setting": "Day 18", "result": "0 ± 0"}, {"measurement": "Detailed Clinical Scores: left forelimb", "setting": "Day 18", "result": 0}, {"measurement": "Detailed Clinical Scores: left hind limb", "setting": "Day 18", "result": 0}, {"measurement": "Detailed Clinical Scores: right forelimb", "setting": "Day 18", "result": 0}, {"measurement": "Detailed Clinical Scores: right hind limb", "setting": "Day 18", "result": 0}, {"measurement": "Detailed Clinical Scores: score", "setting": "Day 18", "result": 0}, {"measurement": "Overall clinical score", "setting": "Day 18", "result": 0}, {"measurement": "Mean animal paw volume ± SD", "setting": "Day 19, L paw", "result": 1.29, "unit": "mL"}, {"measurement": "Animal paw volume percent change", "setting": "Day 19, L paw", "result": "−5.20% and −6.90%"}, {"measurement": "Mean animal paw volume ± SD", "setting": "Day 19, R paw", "result": 1.28, "unit": "mL"}, {"measurement": "Animal paw volume percent change", "setting": "Day 19, R paw", "result": "−5.24% and −6.18%"}, {"measurement": "Average detailed clinical score, left forelimb", "setting": "Day 19", "result": 0.00}, {"measurement": "Average detailed clinical score, left hind limb", "setting": "Day 19", "result": 0.00}, {"measurement": "Average detailed clinical score, right forelimb", "setting": "Day 19", "result": 0.00}, {"measurement": "Average detailed clinical score, right hind limb", "setting": "Day 19", "result": 0.00}, {"measurement": "Average detailed clinical score, score", "setting": "Day 19", "result": 0.00}, {"measurement": "Mean overall clinical score ± SD", "setting": "Day 19", "result": "0 ± 0"}, {"measurement": "Detailed Clinical Scores: left forelimb", "setting": "Day 19", "result": 0}, {"measurement": "Detailed Clinical Scores: left hind limb", "setting": "Day 19", "result": 0}, {"measurement": "Detailed Clinical Scores: right forelimb", "setting": "Day 19", "result": 0}, {"measurement": "Detailed Clinical Scores: right hind limb", "setting": "Day 19", "result": 0}, {"measurement": "Detailed Clinical Scores: score", "setting": "Day 19", "result": 0}, {"measurement": "Overall clinical score", "setting": "Day 19", "result": 0}, {"measurement": "Mean animal paw volume ± SD", "setting": "Day 21, L paw", "result": 1.28, "unit": "mL"}, {"measurement": "Animal paw volume percent change", "setting": "Day 21, L paw", "result": "−6.32% and −6.90%"}, {"measurement": "Mean animal paw volume ± SD", "setting": "Day 21, R paw", "result": 1.29, "unit": "mL"}, {"measurement": "Animal paw volume percent change", "setting": "Day 21, R paw", "result": "−5.99% and −6.18%"}, {"measurement": "Average detailed clinical score, left forelimb", "setting": "Day 21", "result": 0.00}, {"measurement": "Average detailed clinical score, left hind limb", "setting": "Day 21", "result": 0.00}, {"measurement": "Average detailed clinical score, right forelimb", "setting": "Day 21", "result": 0.00}, {"measurement": "Average detailed clinical score, right hind limb", "setting": "Day 21", "result": 0.00}, {"measurement": "Average detailed clinical score, score", "setting": "Day 21", "result": 0.00}, {"measurement": "Mean overall clinical score ± SD", "setting": "Day 21", "result": "0 ± 0"}, {"measurement": "Detailed Clinical Scores: left forelimb", "setting": "Day 21", "result": 0}, {"measurement": "Detailed Clinical Scores: left hind limb", "setting": "Day 21", "result": 0}, {"measurement": "Detailed Clinical Scores: right forelimb", "setting": "Day 21", "result": 0}, {"measurement": "Detailed Clinical Scores: right hind limb", "setting": "Day 21", "result": 0}, {"measurement": "Detailed Clinical Scores: score", "setting": "Day 21", "result": 0}, {"measurement": "Overall clinical score", "setting": "Day 21", "result": 0}]}]}
